Laboratory results published in PubChem BioAssay AID1963853 (Molecular Pharmacology Branch, DTP, NCI, 2024).

Test system: 266295-075-R-J1-PDC spheroid viability
Assay: Anticancer human tumor 266295-075-R-J1-PDC patient-derived head and neck squamous carcinoma cell line growth inhibition [POLQ]
Conditions: spheroids with HUVEC and MSC; for IC50: curve of first compound; for viability, T/C: stronger effect = lower value; active = viability on the fitted dose curve at most 10% of control; inactive = the rest
Protocol: Multicellular complex tumor spheroid response to Polymerase (POL) inhibitors (novobiocin, ART-558, RP6685) in combination with a variety of drugs and investigational agents in selected tumor cell lines
The POL inhibitors (novobiocin, ART-558, and RP6685) were evaluated both individually and in combination with standard of care and investigational anticancer small molecules within a complex spheroid model of solid tumors. . Complex spheroids include a stromal component modeled by human endothelial cells (HUVEC) and fibroblasts modeled by human mesenchymal stem cells (MSCs). The concentration ranges selected for each drug and investigational agent were based upon clinically achievable concentrations if the clinical Cmax of the agent was known.
Compounds. The drugs and investigational agents: novobiocin (NSC847541), ART-558 (NSC835418), RP-6685 (NSC848927), peposertib (NSC802822), ceralasertib (NSC780249), elimusertib (NSC800525), camonsertib (NSC841442), AZD-1390 (NSC803789), olaparib (NSC753686), talazoparib (NSC767125), rucaparib (NSC756644), sotorasib (NSC818433), MRTX-1133 (NSC836407), SN-38 (NSC673596), topotecan (NSC609699), epotoside (NSC141540), doxorubicin (NSC123127), gemcitabine (NSC613327), 5-fluorouracil (NSC19893), paclitaxel (NSC125973), vemurafenib (NSC761431), MSA-2 (NSC828583), SN-011 (NSC837082), adavosertib (NSC754352), prexasertib (NSC758257), carboplatin (NSC241240) and oxaliplatin (NSC266046), were obtained from the National Cancer Institute (NCI) Developmental Therapeutics Program Chemical Repository (21). The FDA-approved anticancer drug set is available from the Developmental Therapeutics Program at https://dtp.cancer.gov/organization/dscb/obtaining/. […] The stock solutions were prepared in dimethyl sulfoxide (DMSO, Sigma-Aldrich, St. Louis, MO, cat. D2650), except for the platinum compounds which were prepared in saline (Quality Biological, Gaithersburg, MD, cat. 114-055-101), at 800-fold the tested concentration and stored at -70 degrees C prior to their use. All drugs and investigational agents were tested over a range starting from a high concentration at or near the clinical Cmax and decreasing in half-log increments. If the clinical Cmax for an agent had not been determined, the highest concentration tested was 10 microM, except for SN-38, which was tested at a high concentration of 1 microM.
Cell Culture. All cells were maintained in an incubator at 37 degrees C and 5% CO2 with 95% humidity. The PDC lines were cultured according to standard operating procedures established by the NCI PDMR (https://pdmr.cancer.gov). Table 3 of the manuscript, lists the cell lines along with the number of the three cell types plated to form the mct-spheroids and media for tumor cell growth. After thawing, all PDC lines, except 997537-175-T-J1-PDC and 415267-285-R-J2-PDC, were cultured in Matrigel-coated flasks prepared with a working solution of 1X Ham's F-12 nutrient mix, without supplementation (Thermo Fisher Scientific, cat. 11765054), 100 U/mL penicillin-streptomycin (Thermo Fisher Scientific, cat. 15140122), and 2.5% Matrigel (Corning Inc., Corning, NY, cat. 354248) for the first three passages. The two PDC lines 997537-175-T-J1-PDC and 415267-285-R-J2-PDC were cultured on uncoated flasks. The 857933-349-R-J2-PDC line was cultured in 6C/Colon 1B media containing advanced DMEM/F-12 (Thermo Fisher Scientific, cat. 12634028), 10 mM HEPES (Thermo Fisher Scientific, cat. 15630080), 1X GlutaMAX supplement (Thermo Fisher Scientific, cat. 35050061), 0.1 mg/mL primocin (InvivoGen, San Diego, CA, cat. ant-pm-2), 10% defined fetal bovine serum, heat inactivated (HyClone Laboratories Inc., Logan, UT, cat. SH30070.03HI), 50% L-WRN conditioned media (ATCC, cat. CRL-3276), 1.25 mM N-Acetyl-L-cysteine (Sigma-Aldrich, cat. A9165), 10 mM nicotinamide (Sigma-Aldrich, cat. N0636), 1X B-27 supplement (Thermo Fisher Scientific, cat. 17504044), 1X N-2 supplement (Thermo Fisher Scientific, cat. […]

[1] = second compound 0.0316 µM, first compound 0.0316 µM
[2] = second compound 0.0316 µM, first compound 0.1 µM
[3] = second compound 0.1 µM, first compound 0.0316 µM
[4] = second compound 0.1 µM, first compound 0.1 µM
[5] = second compound 0.316 µM, first compound 0.0316 µM
[6] = second compound 0.316 µM, first compound 0.1 µM
[7] = second compound 1 µM, first compound 0.0316 µM
[8] = second compound 1 µM, first compound 0.1 µM
[9] = second compound 3.16 µM, first compound 0.0316 µM
[10] = second compound 3.16 µM, first compound 0.1 µM
[11] = second compound 10 µM, first compound 0.0316 µM
[12] = second compound 10 µM, first compound 0.1 µM
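Note: spheroids exposed to compounds for seven days before readout.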

CC[C@@]1(O)C(=O)OCc2c1cc1n(c2=O)Cc2cc3c(CN(C)C)c(O)ccc3nc2-1 + Cc1cccc(N(C)C(=O)C2C(O)CCN2c2nc(C)cc(C(F)(F)F)c2C#N)c1
> 0.1 µM: IC50 (second compound 0.0316 µM) | IC50 (second compound 0.1 µM) | IC50 (second compound 0.316 µM) | IC50 (second compound 1 µM) | IC50 (second compound 3.16 µM) | IC50 (second compound 10 µM)
inactive: viability, T/C (second compound 0.0316 µM, first compound 0.000316 µM) 75% | viability, T/C (second compound 0.0316 µM, first compound 0.001 µM) 85.8% | viability, T/C (second compound 0.0316 µM, first compound 0.00316 µM) 107% | viability, T/C (second compound 0.0316 µM, first compound 0.01 µM) 83.8% | viability, T/C [1] 91.3% | viability, T/C [2] 76.3% | viability, T/C (second compound 0.1 µM, first compound 0.000316 µM) 94.2% | viability, T/C (second compound 0.1 µM, first compound 0.001 µM) 90.1% | viability, T/C (second compound 0.1 µM, first compound 0.00316 µM) 77.6% | viability, T/C (second compound 0.1 µM, first compound 0.01 µM) 81.2% | viability, T/C [3] 86.6% | viability, T/C [4] 77.8% | viability, T/C (second compound 0.316 µM, first compound 0.000316 µM) 101% | viability, T/C (second compound 0.316 µM, first compound 0.001 µM) 88% | viability, T/C (second compound 0.316 µM, first compound 0.00316 µM) 88% | viability, T/C (second compound 0.316 µM, first compound 0.01 µM) 86.8% | viability, T/C [5] 106% | viability, T/C [6] 93.9% | viability, T/C (second compound 1 µM, first compound 0.000316 µM) 79% | viability, T/C (second compound 1 µM, first compound 0.001 µM) 103% | viability, T/C (second compound 1 µM, first compound 0.00316 µM) 85.2% | viability, T/C (second compound 1 µM, first compound 0.01 µM) 91.2% | viability, T/C [7] 92.3% | viability, T/C [8] 87.7% | viability, T/C (second compound 3.16 µM, first compound 0.000316 µM) 78% | viability, T/C (second compound 3.16 µM, first compound 0.001 µM) 94.2% | viability, T/C (second compound 3.16 µM, first compound 0.00316 µM) 92.4% | viability, T/C (second compound 3.16 µM, first compound 0.01 µM) 87.2% | viability, T/C [9] 91.9% | viability, T/C [10] 78.2% | viability, T/C (second compound 10 µM, first compound 0.000316 µM) 122% | viability, T/C (second compound 10 µM, first compound 0.001 µM) 93.8% | viability, T/C (second compound 10 µM, first compound 0.00316 µM) 93.3% | viability, T/C (second compound 10 µM, first compound 0.01 µM) 109% | viability, T/C [11] 115% | viability, T/C [12] 88.4%

CNCc1ccc(-c2[nH]c3cc(F)cc4c3c2CCNC4=O)cc1 + Nc1ccc(C#CCN(C(=O)Cc2ncc(C(F)(F)F)cc2C(F)(F)F)c2ccc(F)cc2)nn1
inactive: viability, T/C [1] 98.8% | viability, T/C [2] 89.6% | viability, T/C (second compound 0.0316 µM, first compound 0.316 µM) 93.5% | viability, T/C (second compound 0.0316 µM, first compound 1 µM) 103% | viability, T/C (second compound 0.0316 µM, first compound 3.16 µM) 101% | viability, T/C (second compound 0.0316 µM, first compound 10 µM) 113% | viability, T/C [3] 116% | viability, T/C [4] 97% | viability, T/C (second compound 0.1 µM, first compound 0.316 µM) 95.6% | viability, T/C (second compound 0.1 µM, first compound 1 µM) 83.2% | viability, T/C (second compound 0.1 µM, first compound 3.16 µM) 102% | viability, T/C (second compound 0.1 µM, first compound 10 µM) 111% | viability, T/C [5] 102% | viability, T/C [6] 107% | viability, T/C (second compound 0.316 µM, first compound 0.316 µM) 101% | viability, T/C (second compound 0.316 µM, first compound 1 µM) 87.2% | viability, T/C (second compound 0.316 µM, first compound 3.16 µM) 98.4% | viability, T/C (second compound 0.316 µM, first compound 10 µM) 70.2% | viability, T/C [7] 93.3% | viability, T/C [8] 86.9% | viability, T/C (second compound 1 µM, first compound 0.316 µM) 123% | viability, T/C (second compound 1 µM, first compound 1 µM) 87.2% | viability, T/C (second compound 1 µM, first compound 3.16 µM) 111% | viability, T/C (second compound 1 µM, first compound 10 µM) 119% | viability, T/C [9] 88.1% | viability, T/C [10] 97.9% | viability, T/C (second compound 3.16 µM, first compound 0.316 µM) 81.9% | viability, T/C (second compound 3.16 µM, first compound 1 µM) 97.8% | viability, T/C (second compound 3.16 µM, first compound 3.16 µM) 100% | viability, T/C (second compound 3.16 µM, first compound 10 µM) 105% | viability, T/C [11] 92.8% | viability, T/C [12] 94.8% | viability, T/C (second compound 10 µM, first compound 0.316 µM) 99.5% | viability, T/C (second compound 10 µM, first compound 1 µM) 91% | viability, T/C (second compound 10 µM, first compound 3.16 µM) 87% | viability, T/C (second compound 10 µM, first compound 10 µM) 131%
> 10 µM: IC50 (second compound 0.0316 µM) | IC50 (second compound 0.1 µM) | IC50 (second compound 0.316 µM) | IC50 (second compound 1 µM) | IC50 (second compound 3.16 µM) | IC50 (second compound 10 µM)
